Assay results as given in US5288709A, “Erythromycin derivatives” (priority 1991, dated 1994).
Values after ≈ are worked out from the molar mass of the structure shown. Like-named read-outs stand apart in the source and are kept apart here.

What was measured:
Test in all cases: In-vitro antimicrobial activity primary screen (agar dilution MIC)
Assay type in all cases: cell-based
[1] = tested on: Staphylococcus aureus 45 RAR2; conditions: Staphylococcus aureus, 45RAR2, 24 h, BHI agar, 20-24 h
Outline: (§1)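 Growth inhibition was scored on Brain Heart Infusion agar after 20-24 h incubation at 35-37° C; the MIC is the lowest tested concentration yielding no growth, a slight haze or sparsely isolated colonies on the inoculum spot.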

[2] = tested on: Pseudomonas aeruginosa A5007
Outline: as §1

[3] = tested on: Staphylococcus aureus ATCC 6538P; conditions: Staphylococcus aureus, ATCC6538P, 24 h, BHI agar, 20-24 h
Outline: as §1

[4] = tested on: Pseudomonas aeruginosa K799/WT
Outline: as §1

[5] = tested on: Streptococcus agalactiae CMX 508; conditions: 20-24 h
Outline: as §1

Staphylococcus aureus 45 = conditions: BHI agar, 20-24 h
Outline: as §1

[6] = tested on: Micrococcus luteus ATCC 9341; conditions: 20-24 h
Outline: as §1

[7] = tested on: Staphylococcus aureus 642A; conditions: BHI agar, 20-24 h, read-out: MIC
Outline: as §1

[8] = tested on: Staphylococcus aureus NCTC 10649; conditions: NCTC10649, BHI agar, 20-24 h, read-out: MIC
Outline: as §1

[9] = tested on: Staphylococcus aureus A5177; conditions: Staphylococcus aureus, A5177, 24 h
Outline: as §1

[10] = tested on: Staphylococcus epidermidis 3519; conditions: BHI agar, 20-24 h
Outline: as §1

Escherichia coli JUHL = conditions: Escherichia coli JUHL, BHI agar, 20-24 h
Outline: as §1

[11] = tested on: Enterobacter aerogenes ATCC 13048; conditions: Klebsiella aerogenes, Enterobacter aerogenes ATCC 13048, BHI agar, 20-24 h
Outline: as §1

[12] = tested on: Pseudomonas aeruginosa BMH10; conditions: BHI agar, 20-24 h
Outline: as §1

[13] = tested on: Streptococcus pyrogenes 2548 INDUC; conditions: BHI agar, 20-24 h
Outline: as §1

Escherichia coli H560 = conditions: Escherichia coli H560, BHI agar, 20-24 h
Outline: as §1

[14] = tested on: Micrococcus luteus ATCC 4698; conditions: 20-24 h
Outline: as §1

[15] = tested on: Streptococcus bovis A5169; conditions: Streptococcus equinus, BHI agar, 20-24 h
Outline: as §1

Escherichia coli DC-2 = conditions: Escherichia coli DC-2, BHI agar, 20-24 h
Outline: as §1

[16] = tested on: Pseudomonas aeruginosa K799/61
Outline: as §1

[17] = tested on: Streptococcus pyrogenes EES61; conditions: BHI agar, 20-24 h, read-out: MIC
Outline: as §1

Acinetobacter SP CMX 669 = conditions: Acinetobacter SP CMX 669, BHI agar, 20-24 h
Outline: as §1

Escherichia coli SS = conditions: Escherichia coli, 24 h, BHI agar, 20-24 h
Outline: as §1

[18] = tested on: Enterococcus faecium ATCC 8043
Outline: as §1

[19] = tested on: Providencia stuartii CMX 640
Outline: as §1

Pseudomonas cepacia 2961 = conditions: BHI agar, 20-24 h
Outline: as §1

[20] = tested on: Staphylococcus aureus CMX 553; conditions: Staphylococcus aureus, CMX553, 24 h, BHI agar, 20-24 h, read-out: MIC
Outline: (§2)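 MIC is read as the lowest compound level yielding no growth, slight haze or sparse colonies on the inoculum spot, relative to a drug-free plate. Strains were replicator-inoculated (1:100 dilution) onto BHI agar plates holding twelve dilutions and held at 35-37 °C for 20-24 h, with erythromycin A as comparator.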

[21] = tested on: Klebsiella pneumoniae ATCC 8045; conditions: ATCC8045; Klebsiella pneumoniae ATCC 8045; BHI agar, 20-24 h; read-out: MIC
Outline: as §1

[22] = tested on: Staphylococcus aureus CMX 503A; conditions: Staphylococcus aureus, CMX503A, 24 h, BHI agar, 20-24 h, read-out: MIC
Outline: as §2

[23] = tested on: Staphylococcus aureus CMX 686B; conditions: CMX686B, BHI agar, 20-24 h, read-out: MIC
Outline: as §2

[24] = Streptococcus agalactiae, CMX508, 24 h, BHI agar
[25] = Staphylococcus aureus, 45, 24 h
[26] = ATCC9341, BHI agar, read-out: MIC
[27] = Micrococcus luteus, ATCC4698, 24 h, BHI agar
[28] = Pseudomonas aeruginosa K799/61, BHI agar, 20-24 h, read-out: MIC
[29] = ATCC8043, Enterococcus faecium ATCC 8043, BHI agar, 20-24 h, read-out: MIC
[30] = Pseudomonas aeruginosa A5007, BHI agar, 20-24 h, read-out: MIC
[31] = CMX640, Providencia stuartii CMX 640, BHI agar, 20-24 h, read-out: MIC
[32] = Burkholderia cepacia, read-out: MIC

Row | SMILES | MIC [1] [µg/mL] | MIC [3] [µg/mL] | MIC [5, 24] [µg/mL] | MIC (Staphylococcus aureus 45; [25]) [µg/mL] | MIC [6, 26] [µg/mL] | MIC [7] [µg/mL] | MIC [8] [µg/mL] | MIC [9] [µg/mL] | MIC ([10]; read-out: MIC) [µg/mL] | MIC ([13]; Streptococcus, 2548INDUC, 24 h) [µg/mL] | MIC [14, 27] [µg/mL] | MIC ([15]; A5169, 24 h) [µg/mL] | MIC [16, 28] [µg/mL] | MIC [17] [µg/mL] | MIC (Escherichia coli SS) [µg/mL] | MIC [18, 29] [µg/mL] | MIC [20] [µg/mL] | MIC [2, 30] [µg/mL] | MIC (Escherichia coli JUHL; read-out: MIC) [µg/mL] | MIC ([11]; ATCC13048, read-out: MIC) [µg/mL] | other results
1 | CC[C@H]1OC(=O)[C@H](C)[C@@H](O[C@H]2C[C@@](C)(OC)[C@@H](O)[C@H](C)O2)[C@H](C)[C@@H](O[C@@H]2O[C@H](C)C[C@H](N(C)C)[C@H]2O)[C@](C)(OC)C[C@@H](C)[C@@H]2O[C@@]1(C)[C@@H](O)[C@H]2C [Example 28A] | 0.2 (≈ 0.273 µM) | 0.2 (≈ 0.273 µM) | 0.05 (≈ 0.0683 µM) | 3.1 (≈ 4.24 µM) | 0.05 (≈ 0.0683 µM) | 0.2 (≈ 0.273 µM) | 0.2 (≈ 0.273 µM) | 0.2 (≈ 0.273 µM) | 0.2 (≈ 0.273 µM) | 3.1 (≈ 4.24 µM) | 0.1 (≈ 0.137 µM) | 0.02 (≈ 0.0273 µM) | 0.78 (≈ 1.07 µM) | 0.02 (≈ 0.0273 µM) | 0.2 (≈ 0.273 µM) | 0.05 (≈ 0.0683 µM) | 0.2 (≈ 0.273 µM) |  |  |  | MIC ([2]; Pseudomonas aeruginosa, A5007, 24 h): > 100 µg/mL; MIC ([4]; Pseudomonas aeruginosa, K799/WT, 24 h): > 100 µg/mL; MIC (Escherichia coli JUHL; Escherichia coli, 24 h): 25 µg/mL (≈ 34.2 µM); MIC ([11]; ATCC13048, 24 h): 50 µg/mL (≈ 68.3 µM); MIC ([12]; Pseudomonas aeruginosa, BMH10, 24 h): 50 µg/mL (≈ 68.3 µM); MIC (Escherichia coli H560; Escherichia coli, H560, 24 h): 25 µg/mL (≈ 34.2 µM); MIC (Escherichia coli DC-2; Escherichia coli, DC2, 24 h): 25 µg/mL (≈ 34.2 µM); MIC (Acinetobacter SP CMX 669; Acinetobacter, SPCMX669, 24 h): 6.2 µg/mL (≈ 8.47 µM); MIC ([19]; Providencia stuartii, CMX640, 24 h): > 100 µg/mL; MIC (Pseudomonas cepacia 2961; Burkholderia cepacia, 2961, 24 h): > 100 µg/mL
2 | CC[C@H]1OC(=O)[C@H](C)[C@@H](O[C@H]2C[C@@](C)(OC)[C@@H](NC(N)=O)[C@H](C)O2)[C@H](C)[C@@H](O[C@@H]2O[C@H](C)C[C@H](N(C)C)[C@H]2O)[C@](C)(O)C[C@@H](C)[C@@H]2O[C@@]1(C)C(=O)[C@H]2C [Example 32, (4"S,9S)-4"-[(aminocarbonyl)amino]-9-deoxo-4",11,12-trideoxy-9,12-epoxy-11-oxoerythromycin A] | 0.39 (≈ 0.515 µM) | 0.1 (≈ 0.132 µM) | 0.05 (≈ 0.066 µM) |  | 0.05 (≈ 0.066 µM) | 0.1 (≈ 0.132 µM) | 0.1 (≈ 0.132 µM) | > 100 | 0.2 (≈ 0.264 µM) |  | 0.2 (≈ 0.264 µM) | 0.05 (≈ 0.066 µM) | 0.78 (≈ 1.03 µM) | 0.02 (≈ 0.0264 µM) | 0.2 (≈ 0.264 µM) |  | 0.2 (≈ 0.264 µM) | > 100 | 100 (≈ 132 µM) | 100 (≈ 132 µM) | MIC ([4]; Pseudomonas aeruginosa, K799/WT, 24 h, Pseudomonas aeruginosa K799/WT, BHI agar, 20-24 h): 50 µg/mL (≈ 66 µM); MIC (Staphylococcus aureus 45; read-out: MIC): 0.2 µg/mL (≈ 0.264 µM); MIC ([12]; read-out: MIC): 100 µg/mL (≈ 132 µM); MIC ([13]; read-out: MIC): 0.78 µg/mL (≈ 1.03 µM); MIC (Escherichia coli H560; read-out: MIC): 100 µg/mL (≈ 132 µM); MIC (Escherichia coli DC-2; DC2, read-out: MIC): 100 µg/mL (≈ 132 µM); MIC (Acinetobacter SP CMX 669; SPCMX669, read-out: MIC): 100 µg/mL (≈ 132 µM); MIC ([18]; Enterococcus faecium, ATCC8043, 24 h): 0.2 µg/mL (≈ 0.264 µM); MIC [19, 31]: > 100 µg/mL; MIC (Pseudomonas cepacia 2961; [32]): > 100 µg/mL
3 | CC[C@H]1OC(=O)[C@H](C)[C@@H](O[C@H]2C[C@@](C)(OC)[C@@H](NS(C)(=O)=O)[C@H](C)O2)[C@H](C)[C@@H](O[C@@H]2O[C@H](C)C[C@H](N(C)C)[C@H]2O)[C@](C)(O)C[C@@H](C)[C@@H]2O[C@@]1(C)C(=O)[C@H]2C [Example 16, (4"S,9S)-9-Deoxo-4",11,12-trideoxy-9,12-epoxy-4"-(methylsulfonyl)amino-11-oxerythromycin A] | 0.78 (≈ 0.984 µM) | 0.39 (≈ 0.492 µM) |  | 0.39 (≈ 0.492 µM) |  |  |  |  |  | 3.1 (≈ 3.91 µM) |  |  |  | < 0.005 | 0.39 (≈ 0.492 µM) | 0.05 (≈ 0.063 µM) | 0.39 (≈ 0.492 µM) | > 100 | > 100 | > 100 | MIC ([4]; Pseudomonas aeruginosa K799/WT, BHI agar, 20-24 h, read-out: MIC): 100 µg/mL (≈ 126 µM); MIC ([5]; CMX508, BHI agar, read-out: MIC): 0.02 µg/mL (≈ 0.0252 µM); MIC ([6]; Micrococcus luteus, ATCC9341, 24 h, BHI agar): 0.02 µg/mL (≈ 0.0252 µM); MIC ([9]; Staphylococcus aureus A5177, BHI agar, 20-24 h): 0.39 µg/mL (≈ 0.492 µM); MIC ([10]; Staphylococcus epidermidis, 3519, 24 h): 0.39 µg/mL (≈ 0.492 µM); MIC ([12]; read-out: MIC): 100 µg/mL (≈ 126 µM); MIC (Escherichia coli H560; read-out: MIC): > 100 µg/mL; MIC ([14]; ATCC4698, BHI agar, read-out: MIC): 0.05 µg/mL (≈ 0.063 µM); MIC ([15]; read-out: MIC): < 0.005 µg/mL; MIC (Escherichia coli DC-2; DC2, read-out: MIC): > 100 µg/mL; MIC ([16]; Pseudomonas aeruginosa, K799/61, 24 h): 3.1 µg/mL (≈ 3.91 µM); MIC [21]: > 100 µg/mL; MIC (Acinetobacter SP CMX 669; SPCMX669, read-out: MIC): 50 µg/mL (≈ 63 µM); MIC [19, 31]: > 100 µg/mL; MIC (Pseudomonas cepacia 2961; [32]): > 100 µg/mL; MIC [22]: 0.39 µg/mL (≈ 0.492 µM); MIC [23]: 0.39 µg/mL (≈ 0.492 µM)
